Source: US7018642B2 (The Procter & Gamble Company, priority 2001, dated 2006)

What was measured:
Format in all cases: cell-based
[1] = system: P. aeruginosa strain PAO1; assay: Biofilm prevention screen (96-well microplate, crystal violet); conditions: Pseudomonas aeruginosa, positive = prevention, negative = enhancement of biofilm formation, quadruplicate, read-out: average percentage reduction of biofilm formed relative to DMSO controls
Experimental: (§1) Overnight cultures of 3 mL are made of P. aeruginosa strain PAO1 (grown in R2A medium (Handbook of Microbiological Media; CRC Press, 1997, second edition, R. M. Atlas, ed.), modified to omit Mg^2+ but to include 0.3–0.5% fructose (pH 7.0) and 3 μM ferrous ammonium sulfate), P. fluorescens strain ATCC 13525 (grown in R2A modified to omit Mg^2+ but to include 0.3–0.5% sodium pyruvate (pH 7.0)), S. epidermidis strain ATCC 35984 (grown in a ¼ dilution of TSB (Handbook of Microbiological Media; CRC Press, 1997, second edition, R. M. Atlas, ed.) supplemented with 1% fructose (pH 7.0) and 3 μM ferrous ammonium sulfate). To each type of growth medium, HEPES (pH 7.3) is optionally added to a final concentration of 10 mM.
(§2) To PS, PVC, or PP (preferably PP or PVC) round-bottom, 96-well microplates containing 100 μl per well of the respective growth medium as described above, compounds to be tested (dissolved in DMSO) are added and mixed, to give a final concentration of 250–500 μM. These microplates then also are used to make successive dilutions of the compounds in the same respective growth medium to yield microplates containing final concentrations of, for example, 160 μM and 32 μM of the same set of compounds. Control wells are included in the dilution series that contain only DMSO. From the 3 ml overnight cultures, each of the three dilution plate sets is inoculated with 5 μl per well of a 1:1 dilution in the same liquid growth media of the appropriate culture. The covered plate is then incubated with shaking, at 30° C. (for P. aeruginosa or P. fluorescens) or 37° C. (for S. epidermidis), at 200 rpm, for 16–26 hours, in a humidity controlled environment.
(§3) Cells present in biofilm attached to the microplate surface are stained with CV either after removal of the liquid from each well, followed by rinsing three times (aspiration and addition) with 150 μl per well phosphate buffered saline solution (PBS) and final addition of 100 μl per well of PBS, or by direct addition of stain to bacterial cultures without rinsing. To 100 μl per well of PBS or of bacterial culture, 25 μl/well of 1% CV solution (in ˜10% ethanol) is added. After incubation at room temperature for 45 minutes, the dye solution is removed from the plates. Residual dye is immediately removed by gentle rinsing with a stream of deionized water by filling and inverting the plates 4–5 times, or by using an automated pipettor. Rinsed plates are air-dried at room temperature for 0.5–2 hours. Bound dye is extracted by the addition of 150 μL per well of 95% ethanol, followed by vigorous mixing for 10–15 seconds and incubation for 45 minutes at room temperature without shaking. Subsequently, either undiluted or diluted (in ethanol) samples of extracted CV are transferred to flat bottom, polystyrene microtiter plates and absorbances at 586 nm were measured in a microplate reader. Readings from wells containing compounds are compared to the average of data from control wells that contain only DMSO. Replicate samples are measured, and results are reported as averages of the replicate well data points.
(§4) Data are expressed in terms of the average percentage reduction of biofilm formed in the presence of each compound, relative to the DMSO controls, for quadruplicate samples. Assays are run using the three compound concentrations indicated. Positive numbers indicate prevention of biofilm formation by a compound, and negative numbers indicate enhancement of biofilm formation by a compound (percentage coefficients of variation are ≦10%).

[2] = system: P. fluorescens strain ATCC 13525; assay: as above; conditions: Pseudomonas fluorescens, positive = prevention, negative = enhancement of biofilm formation, quadruplicate, read-out: average percentage reduction of biofilm formed relative to DMSO controls; for inhibition at 32 µM: ATCC13525, 32 μM; for inhibition at 160 µM: ATCC13525, 160 μM; for inhibition at 390 µM: ATCC13525, 390 μM
Experimental: as §1, §2, §3, §4

[3] = system: S. epidermidis strain ATCC 35984; assay: as above; conditions: Staphylococcus epidermidis, positive = prevention, negative = enhancement of biofilm formation, quadruplicate, read-out: average percentage reduction of biofilm formed relative to DMSO controls; for inhibition at 32 µM: ATCC35984, 32 μM; for inhibition at 160 µM: ATCC35984, 160 μM; for inhibition at 390 µM: ATCC35984, 390 μM
Experimental: as §1, §2, §3, §4

[4] = system: P. aeruginosa strain PAO1; assay: Improved biofilm dispersion screen (already-formed biofilms, crystal violet); conditions: Pseudomonas aeruginosa, 30 mM NaOH step, positive = dispersion, negative = enhancement of pre-existing biofilm, quadruplicate, read-out: average percentage reduction of biofilm relative to the two control values (dispersion)
Experimental: (§5) A modification of method disclosed in Reference Example 2, which greatly improves the sensitivity and reproducibility of the dispersion screen is hereby disclosed. […] In the modification described herein, compounds are added in the presence of the fresh liquid growth media, such that the resultant biofilms continue to grow, unless a test compound triggers their dispersion. Overnight cultures are made as above, and 100 μL of the appropriate liquid growth media are dispensed into duplicate 96 well microplates—in this fashion, two identical microplates are set up for each bacterial species to be assayed. Neither compounds nor DMSO are added prior to the inoculation of bacteria, and growth in the duplicate plates for 24 hours is allowed using the conditions specified in Reference Example 1. After growth of biofilm to be tested in the wells, cells present in biofilm attached to one of the duplicate microplates is stained with CV, quantitated as described in Reference Example 1, and the data for the entire plate averaged, resulting in a growth control value, t0. The remaining replicate of each microplate pairs is treated with compounds in DMSO, or DMSO alone for control wells, by first removing the cell suspensions from the wells, then adding fresh 100 μL volumes of the same appropriate liquid growth media, followed by direct addition and mixing of the compound DMSO solutions to give final compound concentrations of 390 μM. Incubation of the compound-containing microplates is then continued for an additional 22–26 hours using the same conditions described in Reference Example 1. Cell suspensions are then removed, 100 μL per well of a 0 mM NaOH (S. epidermidis), 20 mM NaOH (P. fluorescens), or 30 mM NaOH (P. aeruginosa) solution in PBS is added, and incubation at room temperature is allowed for 30 minutes. No addition of NaOH is made to the S. epidermidis suspension since a test assay indicated no amplification by base with S. epidermidis. The microplates are subsequently rinsed three times with 150 μL per well of PBS, followed by final liquid removal, staining with CV and quantitation as described in Reference Example 1. Data for each well that contained compound result in a compound value, R, and data for control wells that contained DMSO only are averaged to generate a second control value, t24. The effect of each compound tested on dispersion of the biofilm compared to the two control values is calculated thus: [formula] […] Data are expressed in terms of the average percentage reduction of biofilm formed in the presence of each compound, relative to the two control values, for quadruplicate samples. Assays are run as described above, using compound concentrations of 390 μM. Positive numbers indicate dispersion (reduction) of pre-existing biofilms by a compound, and negative numbers indicate enhancement (stimulation of growth) of pre-existing biofilms by a compound (percentage coefficients of variation are ≦15%).

[5] = system: P. fluorescens strain ATCC 13525; assay: as above; conditions: Pseudomonas fluorescens, ATCC13525, 20 mM NaOH step, positive = dispersion, negative = enhancement of pre-existing biofilm, quadruplicate, read-out: average percentage reduction of biofilm relative to the two control values (dispersion)
Experimental: as §5

[6] = system: S. epidermidis strain ATCC 35984; assay: as above; conditions: Staphylococcus epidermidis, ATCC35984, no NaOH, positive = dispersion, negative = enhancement of pre-existing biofilm, quadruplicate, read-out: average percentage reduction of biofilm relative to the two control values (dispersion)
Experimental: as §5

Structure (SMILES) | inhibition at 32 µM [1] [%] | inhibition at 160 µM [1] [%] | inhibition at 390 µM [1] [%] | inhibition at 32 µM [2] [%] | inhibition at 160 µM [2] [%] | inhibition at 390 µM [2] [%] | inhibition at 32 µM [3] [%] | inhibition at 160 µM [3] [%] | inhibition at 390 µM [3] [%] | inhibition at 390 µM [4] [%] | inhibition at 390 µM [5] [%] | inhibition at 390 µM [6] [%]
CCCCCCCCNC(=O)C1CCCN1C(C)=O (stereo not drawn) [Compound 8] | -9 | -11 | -9 | -12 | -26 | -24 | -13 | -22 | -32 | -30 | -1 | 0
CCCCCCCCCCNC(=O)[C@@H]1CCN1C(=O)OC(C)(C)C [Compound 285, N-(tert-Butoxycarbonyl)-(S)-(−)-2-azetidinecarboxylic acid n-decyl amide] | 7 | -20 | -21 | -12 | -44 | -32 | 2 | 17 | 66 | -37 | -74 | 0
CCCCCCCCNC(=O)[C@@H]1CCCN1C(=O)OC(C)(C)C [Compound 11] | -6 | -18 | -15 | -4 | -6 | -26 | 10 | -60 | 37 | -56 | -23 | 0
CCCCCCCCNC(=O)[C@@H]1CCCCN1C(C)=O [Compound 21] | -6 | -12 | -11 | 2 | 4 | 20 | -15 | -23 | -24 | -39 | -16 | -8
CCCCCCCCNC(=O)[C@@H]1CCN1 [Compound 288] | 12 | 97 | 96 | -14 | 40 | 59 | 101 | 101 | 99 | -32 | -2 | 72
CCCCCCCCCCNC(=O)C1CCCN1C(C)=O (stereo not drawn) [Compound 9] | -6 | -4 | -26 | -6 | -9 | 0 | -21 | -69 | 33 | -68 | -1 | 21
CCCCCCCCCCCCNC(=O)[C@@H]1CCN1 [Compound 290] | 6 | -16 | 37 | -12 | 98 | 93 | 101 | 100 | 97 | -72 | 21 | 82
CCCCCCNC(=O)[C@@H]1CCCN1 [Compound 30] | 2 | 9 | 18 | 11 | 11 | 19 | -12 | -7 | -6 | 1 | 20 | -11
CCCCCCCCNC(=O)[C@H]1CCCCN1C(=O)CCCCCCC [Compound 28, 1-Octanoyl-(R)-(+)-2-piperidinecarboxylic acid n-octyl amide] | 0 | -3 | -9 | 21 | 38 | 26 | -5 | -44 | -51 | -25 | 10 | -8
